Results as given in patent publication US20210000890A1, “COMPOSITIONS AND METHODS FOR DENTAL CARE” (The State of Israel, Ministry of Agriculture & Rural …, priority 2019, published 2021).

Assays:
[1] = test system: mltD (mannitol-1-phosphate 5-dehydrogenase); assay: Relative gene expression by real-time RT-PCR; type: cell-based, B. subtilis; conditions: TY with 50 mM sugar alcohol vs TY alone (=1)
Procedure: (§1) The cultures of either B. subtilis or S. mutans grown as described above, were diluted (1:100 or 1:10 respectively) in TY or TY supplemented with 50 mM sorbitol or mannitol. Next, B. subtilis were grown 37° C. at 150 rpm while S. mutans at 37° C. in 95% air/5% CO2. Samples for each treatment were taken after 3, 6, 12, 18 and 24 hours. One mL of RNA protect (Qiagen, Hilden, Germany) was added to each sample and incubated at RT for 5 min. After, the cells were centrifuged at 4,000×g for 10 min. RNA extraction preformed using GenUP total RNA kit (biotechrabbit, Hennigsdorf, Germany) according to the manufacture's protocol. Reverse transcription was performed using qScript cDNA synthesis kit (Quantabio, Beverly, Mass., USA).The synthesized cDNA was later used for the real-time PCR analysis of key enzymes in the metabolic pathway of S. mutans and B. subtilis (Sorbitol dehydrogenase (gutB) or Mannitol-1-phosphate 5-dehydrogenase (mltD)). The RT-PCR reaction was performed as described previously^33. Briefly, RT-PCR reaction mixture (20 μL) contained 1×SYBR Green (Invitrogen, California, USA), 1 μL cDNA sample and […] of the appropriate forward and reverse PCR primers. PCR conditions included an initial denaturation at 95° C. for 10 min, followed by a 40-cycles of amplification, consisting of denaturation at 95° C. for 15 s and annealing and extension at 60° C. for 1 min. Contamination by residual genomic DNA was determined from control reactions devoid of reverse transcriptase. The expression levels of all the tested genes by real-time PCR were normalized using the 16S rRNA gene of S. mutans as an internal standard ([…] et al., 2007) or sigA gene for B. subtilis.

[2] = test system: S. mutans biofilm; assay: Mono and dual-species biofilm formation, biofilm biomass by Crystal Violet staining; type: cell-based, Streptococcus mutans UA159; conditions: S. mutans cultured as monospecies in TY with the sugar alcohol, 24 h
Procedure: For B. subtilis mono-species biofilm, a starter culture was diluted 1:100 (to obtain final O.D (600 nm)=0.07)) into TY or TY supplemented with either 2% sucrose or sorbitol or mannitol at various concentrations (10, 25,50,100 or 125 mM) in 96-well plate (Nunc, Roskilde, Denmark). The plate was incubated at 37° C. in 95% air/5% CO2 for 24 h.
For S. mutans mono-species biofilm, overnight cultured S. mutans (O.D (600 nm)=1)) were diluted 1:10 into TY or TY supplemented with 2% sucrose (served as controls) or TY supplemented with different concentration of sorbitol or mannitol (10, 25,50,100 or 125 mM) into 96-well plate (Nunc). The plate was incubated at 37° C. in 95% air/5% CO2 for 24 h. For dual-species biofilm, cells of B. subtilis and S. mutans were grown into 96-well plate as follows: to fresh TY or TY supplemented with 2% sucrose or different concentration of sorbitol or mannitol (10, 25, 50, 100 or 125 mM) were introduced overnight cultured S. mutans (diluted by a ratio 1:10, approximately 2.5×10^7 CFU) and B. subtilis (diluted by a ratio 1:100, approximately 2.5×10^5 CFU). […]
The generated submerged biofilms were washed carefully twice with saline solution. […] The extract was placed in a new 96-well plate and O.D. at 595 nm was measured using a plate reader instrument (infinite PRO2000, NEOTEC Scientific Instrumentation Ltd. Camspec, Cambridge, United Kingdom)^31,32.

[3] = test system: S. mutans; assay: Growth curve analysis (O.D. 595 nm); type: cell-based, Streptococcus mutans UA159; conditions: for growth of S. mutans: M9 minimal medium, 50 mM as sole carbon source, 16 h; for lag phase of S. mutans: TY medium supplemented with the sugar alcohol, different concentrations
Procedure: For growth curve analysis, B. subtilis or S. mutans cultures grown as described above, were diluted (1:100 or 1:10 respectively) in TY or TY supplemented with 2% sucrose or different concentration of sorbitol or mannitol. When needed, the bacteria were diluted in M9 medium with 0.2% glucose or 50 mM sorbitol/mannitol. The cultures were then incubated at 37° C. overnight with slight shaking. The growth was recorded every hour using optical density measurement at 595 nm (infinite […]).

[4] = test system: gutB (sorbitol dehydrogenase); assay: Relative gene expression by real-time RT-PCR; type: cell-based, B. subtilis; conditions: TY with 50 mM sugar alcohol vs TY alone (=1)
Procedure: as §1

| SMILES | maximal induction rate of mltD ([1]; after 3 hours) | induction of mltD ([1]; after 6 hours until 24 hours) | S. mutans monospecies biofilm compared to the TY control [2] | growth of S. mutans [3] | lag phase of S. mutans [3] | maximal induction rate of gutB ([4]; after 3 hours) | induction of gutB ([4]; after 6 hours until 24 hours) |
| --- | --- | --- | --- | --- | --- | --- | --- |
| OC[C@@H](O)[C@@H](O)[C@H](O)[C@H](O)CO [mannitol] | 1.6 folds | 1.2 fold | enhanced biofilm | did not grow | approximately 3 hours |  |  |
| OC[C@@H](O)[C@@H](O)[C@H](O)[C@@H](O)CO [sorbitol] |  |  | enhanced biofilm | did not grow | approximately 3 hours | 2 folds | 1.6 fold |
